Results taken from patent US11029285B2, “Real-time and quantitative measurement method for cell traction force” (HUNAN AGRICULTURAL UNIVERSITY, priority 2016, dated 2021).

Tests used:
Type in all cases: cell-based
[1] = tested on: human umbilical vein endothelial cells; experiment: Cell morphology simulation experiments under EGTA; conditions: after the EGTA treatments for five minutes
[2] = tested on: human umbilical vein endothelial cells; experiment: Double resonator QCM cell traction force of 50,000 HUVECs on bare gold electrodes under EGTA
Excerpt: (§1) The steps for measuring the cell traction force by using bare gold electrode AT-cut and BT-cut quartz crystals are as follows:
(§2) 4) checking to make sure that the 8-channel QCM instrument QCA922 has crystal resonant frequency and dynamic resistance outputs, connecting detection cells in turn, determining that each detection cell (e.g., two AT-cut crystal detection cells, two BT-cut crystal detection cells) works, and starting the software to acquire data; 5) removing the sterilized water after the data corresponding to each channel is stable, cleaning twice with sterilized water, then cleaning with PBS, add 52 μL of DMEM medium containing fetal bovine serum, and acquiring QCM resonant frequency (f) and dynamic resistance (R) data for 2 h; adding 250 μL of medium containing a certain number (e.g., 20,000) of H9C2 rat cardiomyocytes or human umbilical vein endothelial cells (HUVECs), continuously acquiring f and R data for about 20 h. The QCM relative frequency shift Δf and dynamic resistance change ΔR of each channel caused by the adhesion of cells at different adhesion time are determined by subtracting the corresponding QCM stable values in media of the channel at the time (t). 6) After the experiment, collecting the medium, gently washing with PBS, adding trypsin for digestion, and counting the cells in the collected fraction with a cytometer; 7) Quantitatively measuring the dynamic change ΔS in the cell traction force during the cell adhesion process according to the frequency shifts Δft^AT and Δft^BT of the paired AT-cut and BT-cut quartz crystals at the time t: ΔSt=(KAT−KBT)^−1[tq^ATΔft^AT/fr^AT−tq^BTΔft^BT/fr^BT] (1),
in which, ΔSt is the traction force of cells at the adhesion time t; KAT=2.75×10^−12 cm^2 dyn^−1 and KBT=−2.65×10^−12 cm^2dyn^−1 are stress coefficients of the AT-cut and BT-cut quartz crystals of given crystal orientations, respectively, and are constants. fr^AT and fr^BT are the resonant frequencies of the AT-cut and BT-cut quartz crystals, respectively; tq^AT and tq^BT are the thicknesses of the AT-cut and BT-cut quartz crystals, respectively, and are constants. Therefore, the surface stress or traction force applied to the crystal by cells in the adhesion process or under the action of a drug can be quantitatively measured according to the frequency shifts Δft^AT, Δft^BT (in Hz) of the AT-cut crystal, the BT-cut crystal at any time t relative to its reference point (e.g., a stabile value in the medium or a stabile value before dosing) based on formula (1). The frequency of the quartz crystal is a digital signal, which can be easily, quickly and continuously acquired or measured by a frequency counting device or a QCM special instrument. […]

H9C2 rat cardiomyocytes = experiment: Double resonator QCM (AT-cut/BT-cut) cell traction force of H9C2 rat cardiomyocytes under inotropic drugs; conditions: 20,000 H9C2 cells on bare gold
Method: as §1
1) dripping 1 drop of Piranha solution (80° C. 1:3 (v:v) 30% H2O2:H2SO4) to the center of each quartz crystal gold electrode for about 30 s, then rinsing with distilled water, drying with nitrogen, and repeating this step by 3 times;
2) assembling the crystals in a Teflon well cell;
3) cleaning the Teflon cell twice with distilled water, then adding about 300 μL of sterilized water, and putting into a 5% CO2 incubator at 37° C.;
as §2
(§3) in which, ΔSt is the traction force of cells at the adhesion time t; KAT=2.75×10^−12 cm^2 dyn^−1 and KBT=−2.65×10^−12 cm^2dyn^−1 are stress coefficients of the AT-cut and BT-cut quartz crystals of given crystal orientations, respectively, and are constants. fr^AT and fr^BT are the resonant frequencies of the AT-cut and BT-cut quartz crystals, respectively; tq^AT and tq^BT are the thicknesses of the AT-cut and BT-cut quartz crystals, respectively, and are constants. Therefore, the surface stress or traction force applied to the crystal by cells in the adhesion process or under the action of a drug can be quantitatively measured according to the frequency shifts Δft^AT, Δft^BT (in Hz) of the AT-cut crystal, the BT-cut crystal at any time t relative to its reference point (e.g., a stabile value in the medium or a stabile value before dosing) based on formula (1). The frequency of the quartz crystal is a digital signal, which can be easily, quickly and continuously acquired or measured by a frequency counting device or a QCM special instrument. The crystal frequency used in the experiment of the present disclosure is 9 MHz, where tq^AT=0.0185 cm, and tq^BT=0.0282 cm. Thus, formula (1) can be simplified as: ΔSt=2.058×10^4(0.0185Δft^AT−0.0282Δft^BT) (2)
Experimental Steps for Effects of Cardiovascular Stimulating Drug Isoprenaline (ISO) and Inhibitory Drug Verapamil (VRP) on Traction Force of H9C2 Rat Cardiomyocytes
Take four Teflon well cells, two identical 9 MHz AT-cut gold electrode crystals and two identical 9 MHz BT-cut gold electrode crystals. […]

[3] = tested on: human umbilical vein endothelial cells; experiment: Double resonator QCM cell traction force of HUVECs on bare gold electrodes under thrombin or Y-27632; conditions: 20,000 HUVECs on bare gold
Excerpt: as §1, §2, §3
Experimental Steps for Effects for Vascular Endothelial Barrier Function Destruction Drug Thrombin and Protective Drug Y-27632 on Traction Force of Human Umbilical Vein Endothelial Cells
Take four Teflon well cells, two identical 9 MHz AT-cut gold electrode crystals and two identical 9 MHz BT-cut gold electrode crystals. Based on the aforementioned steps of measuring the cell traction force with bare gold electrode AT-cut and BT-cut quartz crystals, add 300 μL DMEM medium to the four Teflon cells respectively, and collect data for about 2 h; add 300 μL of mediums containing 20,000 human umbilical vein endothelial cells respectively, collect data for about 24 h, then add the drugs thrombin and Y-27632 to the final concentrations, and continue to collect data for about 24 h.

[4] = tested on: human umbilical vein endothelial cells; experiment: QCM response and cell traction force during adhesion of HUVECs to fibronectin modified gold electrodes
Method: (§4) The Steps for Measuring the Cell Traction Force with AT-Cut and BT-Cut Quartz Crystals Modified with Specific Cell Adhesion Molecules RGD and Fibronectin are as Follows:
(§5) 1) cleaning with anhydrous ethanol and Millipore water, and blowing AT-cut and BT-cut 9 MHz crystals with nitrogen;
2) dripping 1 drop of Piranha solution (80° C. 1:3 (v:v) 30% H2O2:H2SO4) to the quartz crystal gold electrode for treating 30 s, rinsing with Millipore water and anhydrous ethanol, blowing with nitrogen, and repeating 3 times. Dripping the anhydrous ethanol onto the electrode to stand for a few minutes, rinsing with sterile water, and blowing with nitrogen; 3) installing the surface treated AT-cut and BT-cut quartz crystals into Teflon well cells; 4) adding a mixed anhydrous ethanol solution of 20 mM 3-mercaptopropionic acid and 1 mM triethylene glycol mono-11-mercaptoundecyl ether to the Teflon cell at room temperature, and standing overnight in the dark; 5) taking out the solution, and rinsing with sterile water; adding a PBS buffer solution (pH=5.5) with 150 mM EDC and 30 mM NHS dissolved therein, and standing for about 30 min; 6) taking out the solution, and rinsing with PBS buffer solution (pH=5.5) and sterile water; adding a PBS solution of KRGD or fibronectin of different concentrations, and standing for 1-2 h (RGDK) or overnight (fibronectin); 7) taking out the solution, and rinsing with sterilized PBS and sterile water to obtain KRGD or fibronectin modified gold electrodes. Adding 20,000 HUVEC or H9C2 cells, and starting QCM for monitoring; 8) collecting the medium after the experiment, gently wash with PBS, adding trypsin for digestion, and measuring the cells in the collected fraction with a cytometer; and 9) Quantitatively estimating the dynamic change ΔS in the cell traction force during the cell adhesion process according to the frequency shifts Δft^AT and Δft^BT of the AT-cut and BT-cut quartz crystals modified with the same concentration of RGD or fibronectin at the time t based on formula (2).
However, as the adhesion time increases, the surface of the electrode may adsorb adherent factors beneficial to cell adhesion and extracellular matrix factors secreted by the cells, so that ΔS changes positively, and the cells are gradually spread and are finally close to the value of the cell traction force on the gold electrode modified at the low FN concentration (10 μg/mL).

[5] = tested on: human umbilical vein endothelial cells; experiment: Double resonator QCM cell traction force of HUVECs on KRGD or fibronectin modified crystals under blebbistatin or nocodazole; conditions: 20,000 HUVECs
Method: as §4, §5
2) dripping 1 drop of Piranha solution (80° C. 1:3 (v:v) 30% H2O2:H2SO4) to the quartz crystal gold electrode for treating 30 s, rinsing with Millipore water and anhydrous ethanol, blowing with nitrogen, and repeating 3 times. […] Adding 20,000 HUVEC or H9C2 cells, and starting QCM for monitoring; 8) collecting the medium after the experiment, gently wash with PBS, adding trypsin for digestion, and measuring the cells in the collected fraction with a cytometer; and 9) Quantitatively estimating the dynamic change ΔS in the cell traction force during the cell adhesion process according to the frequency shifts Δft^AT and Δft^BT of the AT-cut and BT-cut quartz crystals modified with the same concentration of RGD or fibronectin at the time t based on formula (2). […]

[6] = electrode modified at 30 μg/mL, 40 μg/mL FN

## O=C(O)CN(CCOCCOCCN(CC(=O)O)CC(=O)O)CC(=O)O [EGTA]
[1]
  cell spreading area: became smaller
[2]; 1 mM EGTA
  cell traction force in the initial phase: did not decrease but increase slightly
[2]; 10 mM EGTA
  cell generated force with the increase of EGTA time: decreases
[2]; 50 mM EGTA, compared with 10 mM
  cell generated force with the increase of EGTA time: decreases more quickly
[2]; after different concentrations of EGTA (1, 10, 50 mM) are added
  overall cell traction force: shows a tendency to decrease

## COc1ccc(CCN(C)CCCC(C#N)(c2ccc(OC)c(OC)c2)C(C)C)cc1OC (stereo not shown) [VRP, verapamil]
H9C2 rat cardiomyocytes; VRP final concentration 25 nM
  QCM frequency f of AT-cut and BT-cut crystals: increased
  cell traction force ΔS: increases and changes positively
  dynamic resistance R of AT-cut and BT-cut crystals: decreased

## C[C@@H](N)[C@H]1CC[C@H](C(=O)Nc2ccncc2)CC1 [Y-27632]
[3]; 0.5 μM Y-27632
  cell traction force: decreases
  dynamic resistance: decreases
  frequency shift of the crystals: decreases

## fibronectin [FN]
[4]; 20,000 HUVECs, gold electrode modified with FN, DMEM with 2% fetal bovine serum
  cell traction force ΔS (sign): positive
[4]; electrode modified at 10 μg/mL FN
  cell traction force, compared among FN concentrations: close and the least
[4]; electrode modified at 20 μg/mL FN, tested 0, 10, 20, 30, 40, 50 μg/mL
  ΔS, compared among FN concentrations: maximum and stable
[4]; [6]
  QCM frequency shift and dynamic resistance change responses, compared among FN concentrations: medium
  ΔS response over time: increases fastest at the beginning, but fluctuates with time and attenuates to some extent
[4]; electrode modified at 50 μg/mL FN
  cell traction force, compared among FN concentrations: close and the least

## CC(C)NCC(O)c1ccc(O)c(O)c1 (stereo not shown) [ISO, isoprenaline]
H9C2 rat cardiomyocytes; ISO final concentration 125 nM
  QCM frequency f of AT-cut and BT-cut crystals: decreased
  cell traction force ΔS: decreases and changes negatively
  dynamic resistance R of AT-cut and BT-cut crystals: increased

## Cc1ccc2c(c1)C(=O)C1(O)CCN(c3ccccc3)C1=N2 (stereo not shown) [blebbistatin]
[5]; crystals modified at 50 μg/mL KRGD, 1.22 μM blebbistatin
  cell traction force ΔS: decreases

## COC(=O)Nc1nc2ccc(C(=O)c3cccs3)cc2[nH]1 [nocodazole]
[5]; crystals modified at 20 μg/mL fibronectin, 0.5 μM nocodazole
  cell traction force ΔS: increases at the beginning and then decreases

## thrombin
[3]; 0.1 unit/mL thrombin
  cell traction force: increases
  dynamic resistance: increases slightly
  frequency shift of the crystals: decreases
